Series [1] can be described thus: Bioavailability of the solid form of Compound I. The conditions noted are these: no species, dose or data printed.
The nature of series [2]: Thermodynamic stability of solid forms of Compound I. Type of series: physicochemical. The note with it: compared with other forms of Compound I; no method or data given.

As to `Cc1nn(C)cc1S(=O)(=O)NC(=O)c1ccc(-n2ccc(OCC(C)(C)C(F)(F)F)n2)nc1N1C[C@@H](C)CC1(C)C` [Crystalline Compound I Form A, N-(1,3-dimethylpyrazol-4-yl)sulfonyl-6-[3-(3,3,3-trifluoro-2,2-dimethyl-propoxy)pyrazol-1-yl]-2-[(4S)-2,2,4-trimethylpyrrolidin-1-yl]pyridine-3-carboxamide], the bioavailability entry in series [1] is “good bioavailability”. For the same compound, in series [2], the “thermodynamic stability of the solid form” value is given as “most thermodynamically stable form”.

Source of the values: patent US20260034064A1, “COMPOSITIONS FOR THE TREATMENT OF CFTR-MEDIATED DISEASES” (Vertex Pharmaceuticals Incorporated, priority 2022, published 2026).
